Results as given in patent US6552060B1, “Asymmetric disulfides and methods of using same” (Prolx Pharmaceuticals, Inc., priority 1997, dated 2003).
“And” between values parts separate entries of the source, which are not always exact repeats. Identical values can stand only once. “Also recorded” adds a separate entry of the source. Like-named read-outs stand apart in the source and are kept apart here. Marks after values point to notes of the source that are not given here.

B1: thioredoxin: low molecular weight redox protein; human recombinant thioredoxin stimulates proliferation of cancer cells (protein, UniProt P10599 2-105, looked up)
Thioredoxin: VKQIESKTAFQEALDAAGDKLVVVDFSATWCGPCKMIKPFFHSLSEKYSNVIFLEVDVDDCQDVASECEVKCMPTFQFFKKGQKVGEFSGANKEKLEATINELV

Key:
[1] = test system: MCF-7 human breast cancer cells; experiment: Thioredoxin and serum dependent growth of MCF-7 cells; format: cell-based; conditions: 48 hr
Experimental: MCF-7 human breast cancer cells were obtained from the American Tissue Type Collection (Rockville, Md.). Cultures were maintained in Dulbecco's Modified Eagles' medium (DMEM) containing 10% fetal bovine serum (fbs) at 37° C. and 6% CO2, and passaged at 75% confluence using 0.025% trypsin. The effect of the disulfides on cell proliferation was measured as previously described and incorporated herein by reference. Briefly, 10^5 cells were plated in a 35 mm culture dish in the above medium and, after attachment for 24 hr, their growth was arrested by changing to DMEM with 0.5% fbs for 48 hr. The medium was then replaced with DMEM containing 10% fbs or 1 μM thioredoxin, with or without the disulfides. The cell number was measured 2 days later following detachment with 0.025% trypsin using a hemocytometer.
The effects of the disulfides on the growth of human MCF-7 breast cancer cells is shown graphically in FIG. 1. […] The cells were growth arrested in medium with 0.5% serum for 48 hr at which time there were 0.2×10^6 cells. DMEM with 1 mM thioredoxin (open symbols) or 10% serum (filled symbols) was added and the increase in cell number over a 48 hr period was measured in the presence of various concentrations of the disulfides. Values are means±SEM. n=6.

[2] = in vitro; conditions: mouse
[3] = test system: MCF-7 breast cancer cells in scid mice; experiment: Activity against MCF-7 breast cancer cells in scid mice; format: in vivo; conditions: for T/C %: tumor volume treated versus control at day 28
Source text: This is shown below in Table II.

[4] = test system: HL60 cells; experiment: Induction of apoptosis in HL60 cells; format: cell-based, human; conditions: within 8 h of exposure, same concentration
[5] = target: T1, thioredoxin (Homo sapiens, UniProt P10599); experiment: Direct reaction between thioredoxin and disulfides, release of 2-mercaptoimidazole at 252 nm; format: biochemical; conditions: thioredoxin 2 μM, disulfide 200 μM, pH 7.4, room temperature
T1 construct: made in house; host or cells: E. coli
T1 sequence (P10599 1-105): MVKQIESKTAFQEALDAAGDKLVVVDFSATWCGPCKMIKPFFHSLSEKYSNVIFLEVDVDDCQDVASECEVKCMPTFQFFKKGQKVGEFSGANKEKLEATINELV
Experimental: The effects of the assymetric disulfides of Table I on the reduction of thioredoxin and C73S by thioredoxin reductase was measured spectrophotometrically by following the reduction of NADPH at 339 nm. […] In some studies the disulfides at 3.5 μM were preincubated for up to 24 hr at room temperature in air with 0.7 μM thioredoxin or C73S in 100 μM HEPES buffer, pH 7.6, and 5 mM EDTA, before measuring the reduction of the thioredoxin or C73S by thioredoxin reductase with 1 mg/ml bovine insulin as the final electron acceptor. The ability of the disulfides to act as substrates for glutathione reductase was measured by following the reduction of NADPH using an incubation mixture containing 0.15 μg/ml glutathione reductase, 140 μM NADPH, 100 mM HEPES buffer, pH 7.6, 5 mM EDTA and the disulfides at 500 μM. The ability of the disulfides to act as inhibitors of glutathione reductase was measured using oxidized glutathione, 50 μM, as the final electron acceptor. In both cases the reaction was initiated by the addition of NADPH. Thioredoxin or C32S/C35S, 2 μM, in 0.1 M sodium phosphate buffer, pH 7.4, was reacted with the disulfides at a concentration of 200 μM at room temperature. This direct reaction between thioredoxin and the disulfides was followed spectrophotometrically as the increase in absorbance at 252 nm due to release of 2-mercaptoimidazole. Initial reaction rates were measured in triplicate.
Due to the fact that the disulfides inhibited thioredoxin-dependent cell growth at concentrations below those required to inhibit thioredoxin reductase, a direct effect of the disulfides on thioredoxin was looked for. The initial reaction between the disulfides and thioredoxin was measured spectrophotometrically (FIGS. 2A and 2B). […] This is the order of reactivity which be predicted from the steric and electronic nature of the disulfides thioalkylating groups.

[6] = target: T2, TR/Trx (Homo sapiens, UniProt Q16881); experiment: Thioredoxin dependent reduction of insulin by human thioredoxin reductase and NADPH (IC50 TR/Trx, 96 well); format: biochemical
T2 sequence (Q16881 1-499 isoform Q16881-5): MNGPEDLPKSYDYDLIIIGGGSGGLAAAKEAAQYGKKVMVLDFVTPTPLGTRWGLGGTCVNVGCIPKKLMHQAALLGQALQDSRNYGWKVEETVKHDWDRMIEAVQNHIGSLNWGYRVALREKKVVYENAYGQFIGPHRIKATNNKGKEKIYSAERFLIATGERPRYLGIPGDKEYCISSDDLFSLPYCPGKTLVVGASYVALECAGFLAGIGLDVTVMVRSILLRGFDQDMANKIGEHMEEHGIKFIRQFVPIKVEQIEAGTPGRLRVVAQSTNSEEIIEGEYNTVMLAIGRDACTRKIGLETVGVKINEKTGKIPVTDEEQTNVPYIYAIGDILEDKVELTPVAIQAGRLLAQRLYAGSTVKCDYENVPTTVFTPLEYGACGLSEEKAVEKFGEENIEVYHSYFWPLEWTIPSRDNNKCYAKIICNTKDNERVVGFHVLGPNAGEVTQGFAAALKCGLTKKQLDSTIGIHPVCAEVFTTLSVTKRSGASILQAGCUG
Source text: When referring to the particular system being analyzed IC50 is typically followed by an abbreviation referring to that system (i.e., IC50 TR/Trx for the above described thioredoxin redox system which is comprised of thioredoxin reductase and thioredoxin).
A second plate was used for the assessment of biological activity or as a biological screen. Aliquots of disulfides dissolved in DMSO, were be transferred into 96 well plates. The assay to assess their ability to inhibit thioredoxin reductase measures the thioredoxin dependent reduction of insulin by human thioredoxin reductase and NADPH. The effects of the disulfides on the reduction of Trx by TR were measured spectrophotometrically by following the reduction of NADPH at 339 nm with insulin as the final electron acceptor in a buffered mixture of TR, Trx, NADPH and insulin.

[7] = target: T3, Human placental thioredoxin reductase (Homo sapiens, UniProt Q16881); experiment: NADPH oxidation by thioredoxin reductase with the disulfide as substrate, or with thioredoxin and insulin as final electron acceptor and the disulfide as inhibitor; format: biochemical; conditions: for Type: behaviour towards thioredoxin reductase: substrate, inhibitor or non-reactive
T3 sequence (Q16881 1-499 isoform Q16881-5): T2 sequence (Q16881 1-499 isoform Q16881-5)
Experimental: The thioredoxin was stored at −20° C. with 5 mM dithiothreitol which was removed before use with a desalting column (PD10, Pharmacia, Uppsala, Sweden).
Asymmetrical 2-imidazolyl disulfides which were used as a basis for further development and identified below in Table 1. In Table I, NADPH oxidation by thioredoxin reductase was measured spectrophotometrically as described with either the disulfide as the electron acceptor (substrate) or with thioredoxin and insulin as the final electron acceptor and the disulfide as inhibitors. The reactions were initiated by the addition of NADPH. Km and Ki values were calculated from Lineweaver-Burk plots of the data.
The compounds of Table 1 were synthesized by a method described previously and recrystallized prior to use. Stock solutions of the disulfides were prepared at 10 mM in ethanol and diluted in aqueous media just prior to use. N-ethylmaleimide (NEM), diamide, and DTT were obtained from Sigma Chemical Co. (St. Louis, Mo.). All other chemicals used were of reagent grade. […]

[8] = test system: EMT6 mouse mammary tumor cells; conditions: 48 h
[9] = test system: human primary tumors; experiment: Growth of human primary tumors in soft agarose; format: cell-based
[10] = test system: thioredoxin transfected MCF-7 cells; experiment: Apoptosis in MCF-7 cells transfected with human thioredoxin cDNA; conditions: 30 μM, apoptosis measured 48 h later
[11] = test system: MCF-7 breast cancer cells; conditions: read-out: EC50 for growth stimulation; cited from earlier work
[12] = MCF7, in the presence of 1 μM thioredoxin, read-out: IC50 thioredoxin dependent proliferation
[13] = MCF7, with 10% fetal bovine serum, read-out: IC50 serum dependent growth

IC50 [8] [µM] | Molecule | IC50 [1, 12] [µM] | IC50 [1, 13] [µM] | IC50 at 48 h [2] [µM] | apoptosis of HL60 cells [4] | initial rate for reaction between thioredoxin and disulfide [5] [M/s] | Type [7] | other results
 | CCCCSSc1ncc[nH]1 [III-2, n-butyl 2-imidazolyl disulfide] | 0.2 | 35 | 12 | stimulated to apoptose | 7.3e-07 | substrate | Toxicity dead/injected ([3]; 6 mg/kg/day i.p. for 14 days): 0/8; T/C % ([3]; 6 mg/kg/day i.p. for 14 days): 48.9^c %; Toxicity dead/injected ([3]; 12 mg/kg/day i.p. for 14 days): 0/8; T/C % ([3]; 12 mg/kg/day i.p. for 14 days): 56.6^c %; Toxicity dead/injected ([3]; 18 mg/kg/day i.p. for 14 days): 1/8; T/C % ([3]; 18 mg/kg/day i.p. for 14 days): 100.2%; IC50 ([6]; Table 4, read-out: Disulfide inhibition of TR/Trx (IC50 TR/Trx) (converted)): 117 µM; Km ([7]; disulfide as substrate for reduction by thioredoxin reductase, Lineweaver-Burk): 43 µM and 43.1 µM
> 180 | CCC(C)SSc1ncnc2[nH]cnc12 (centres unmarked) [Compound F-7] |  |  | > 180 |  |  |  | IC50 ([6]; Table 3, read-out: IC50 TR/Trx (converted)): 95.7 µM
 | CCC(C)SSc1ncc[nH]1 (centres unmarked) [IV-2, 1-methylpropyl 2-imidazolyl disulfide] | 1.2 | 3.2 | 19 | stimulated to apoptose | 2.8e-07 | competitive inhibitors; also recorded: inhibitor | T/C % ([3]; 5 mg/kg/day i.p. for 14 days): 56.7%; T/C % ([3]; 10 mg/kg/day i.p. for 14 days): 45.9^c %; T/C % ([3]; 15 mg/kg/day i.p. for 14 days): 2.3^c %; tumor inhibition ([3]; MCF-7 tumor system): 98%; growth of human primary tumors in soft agarose [9]: inhibited; apoptosis induced in thioredoxin transfected cells [10]: became resistant to apoptosis
25 | CC(C)SSCc1ccccc1 [Compound E-19] |  |  | 42 |  |  |  | 
 | B1 |  |  |  |  |  |  | EC50 [11]: 0.35 µM
